According to patent US4551547A, “Biocidal 2-aryl-1, 3-cyclopentanedione enol ester compounds” (Union Carbide Corporation, priority 1983, dated 1985):

What was measured:
Tomato = experiment: Post-emergent herbicidal test, tomato; format: in vivo; parameters: key: 1: no perceptible injury; 2: intermediate degrees of injury; 3: intermediate degrees of injury; 4: intermediate degrees of injury; 5: the plant was dead; settings: Table II; 2500 parts per million, after ten days
Experimental: (§1) Suspensions of the test compounds were prepared by dissolving one gram of compound in 50 milliliters of acetone in which had been dissolved 0.1 gram (10 percent of the weight of compound) of an alkylphenoxyethanol sufactant, as an emulsifying or dispersing agent. The resulting solution was mixed into 160 milliliters of water to give roughly 200 milliliters of a suspension containing the compound in finely divided form. The thus prepared stock suspension contained 0.5 percent by weight of compound. The test concentrations employed in the tests described below were obtained by diluting the stock suspension with water. The test procedures were as follows:
(§2) Experiments were also conducted to determine the phytotoxicity of representative compositions with respect to healthy fresh plants. Solutions of the compounds were prepared as described above to provide a concentration of 2500 parts per million of the test compound. The test plants were sprayed in accordance with the procedure described above for the Mite Foliage Spray Test so as to deliver approximately 100 milliliters of test solutions to the leaves of each plant tested. The sprayed plants and controls were set aside for approximately one hour to allow the solutions to dry and were then placed in the greenhouse. After ten days the plants were visually inspected to determine the extent of foliage injury. A rating of 1 indicates no perceptible injury; 5 indicates the plant was dead and ratings of 2, 3 and 4 indicate intermediate degrees of injury based upon the number and extent to which leaves were injured.

Cotton = experiment: Post-emergent herbicidal test, cotton; format: in vivo; parameters: key: 1: no perceptible injury; 2: intermediate degrees of injury; 3: intermediate degrees of injury; 4: intermediate degrees of injury; 5: the plant was dead; settings: Table II; 2500 parts per million, after ten days
Experimental: as §1, §2

Bean = experiment: Post-emergent herbicidal test, bean; format: in vivo; parameters: key: 1: no perceptible injury; 2: intermediate degrees of injury; 3: intermediate degrees of injury; 4: intermediate degrees of injury; 5: the plant was dead; settings: Table II; 2500 parts per million, after ten days
Experimental: as §1, §2

[1] = test system: egg of the two-spotted mite; experiment: Mite Ovicide Test (eggs); format: in vivo, Tetranychus urticae (Koch); parameters: key to Miticidal, Egg: A: Excellent Control; B: Partial Control; No Control; settings: Table II; unhatched eggs after four days
Experimental: Suspensions of the test compounds were prepared by dissolving one gram of compound in 50 milliliters of acetone in which had been dissolved 0.1 gram (10 percent of the weight of compound) of an alkylphenoxyethanol sufactant, as an emulsifying or dispersing agent. The resulting solution was mixed into 160 milliliters of water to give roughly 200 milliliters of a suspension containing the compound in finely divided form. The thus prepared stock suspension contained 0.5 percent by weight of compound. The test concentrations employed in the tests described below were obtained by diluting the stock suspension with water. The test procedures were as follows: The test organism was the egg of the two-spotted mite (Tetranychus urticae (Koch)), as obtained from adults reared on […] bean plants under controlled conditions of 80±5° F. and 50±5 percent relative humidity. Heavily infested leaves from a stock culture were placed on the primary leaves of two bean plants six to eight inches in height growing in a two-and-a-half inch clay pot. Females were allowed to oviposit for a period of 48 hours and the leaves of the infested plants were dipped in a solution containing 800 parts of tetraethyl pyrophosphate per million parts of water in order to destroy the reproductory forms and thus prevent further egg laying. […] The plants were allowed to dry thoroughly. The test compounds were formulated by diluting the stock suspension with water to give a suspension containing varying amounts of test compound per million parts of final formulation. The potted plants (one pot per compound) were placed on a revolving turntable and sprayed with 100-110 milliliters of test compound formulation by use of a DeVilbis spray gun set at 40 spig. air pressure. This application which lasted 30 seconds, was sufficient to wet the plants to run-off. As a control, 100-110 milliliters of a water solution containing acetone and emulsifier in the same concentrations as the test compound formulation, but containing no test compound, were also sprayed on plants infested with eggs. The sprayed plants were held at 80±5° F. and 50±5 percent relative humidity for four days, after which a microscopic examination was made of unhatched (dead) and hatched (living) eggs. In these tests the pesticidal activity of the compounds against mites and mite eggs was rated as follows: Tests were conducted in accordance with the procedures given at pages 17 to 21 supra. The results are expressed in the same manner as used in Table II, except with respect to miticidal activity. For mite adult and mite egg comparison purposes, results are given in parts per million (ppm) required for a 50 percent kill of mites or eggs, respectively.

Perennial rye grass = experiment: Preliminary herbicide seed germination test (pre-emergent), perennial rye grass; format: in vivo, Solium perenne; parameters: key: 5: no seedling emerged; 4: few seedlings emerged and/or very severe stunting; 3: moderate reduction in stand and/or moderate stunting.; 2: very slight reduction in stand and/or slight stunting; 1: no injury, seedlings appear no different with respect to stand or growth than untreated controls; settings: Table II; ten to twelve days after application
Experimental: as §1
(§3) The following seeds were used in this test:
Perennial rye grass--Solium perenne
(§4) Two […] mixtures were prepared as follows:
(§5) Each of the above mixtures was rolled separately in 5 gallon containers for approximately one-half hour on ball mill to insure uniform mixing of seeds and soil. For each compound four 3-inch pots were filled with soil to within 11/2 inches of top of pots. To two of these pots were added 70 cc. of Mixture I. To the remaining 2 pots were added 70 cc. of Mixture II. The seed-soil mixture was tamped firmly, and the pots were removed to the greenhouse and watered lightly. About 2 hours after planting, 25 milliliters of the test formulation were added to one pot containing Mixture I and one pot containing Mixture II. An equal volume of a water solution containing acetone and an emulsifier in the same concentration as the herbicidal mixture but without the candidate herbicide was also added to each of the soil-seed mixtures. These pots are used as check or control units. The test compounds were formulated by diluting the stock suspension with water to obtain the desired concentration of the compound in parts per million of the final formulation. Each compound was tested at the same concentration. […] Ratings were made according to the following designations: […]

Mustard = experiment: Preliminary herbicide seed germination test (pre-emergent), mustard; format: in vivo, Brassica pincea var. foliosa (Florida broadleaf); parameters: key: 5: no seedling emerged; 4: few seedlings emerged and/or very severe stunting; 3: moderate reduction in stand and/or moderate stunting.; 2: very slight reduction in stand and/or slight stunting; 1: no injury, seedlings appear no different with respect to stand or growth than untreated controls; settings: Table II; ten to twelve days after application
Experimental: as §1, §3
Mustard--Brassica pincea var. foliosa (Florida broadleaf)
as §4, §5

[2] = test system: Red root pigweed (Amaranthus); experiment: Preliminary herbicide seed germination test (pre-emergent), red root pigweed; format: in vivo, Amaranthus retroflexus; parameters: key: 5: no seedling emerged; 4: few seedlings emerged and/or very severe stunting; 3: moderate reduction in stand and/or moderate stunting.; 2: very slight reduction in stand and/or slight stunting; 1: no injury, seedlings appear no different with respect to stand or growth than untreated controls; settings: Table II; ten to twelve days after application
Experimental: as §1, §3
Red root pigweed--Amaranthus retroflexus
as §4, §5

SMILES	Post-emergent Herbicidal, Tomato (Tomato)	Post-emergent Herbicidal, Cotton (Cotton)	Post-emergent Herbicidal, Bean (Bean)	Miticidal, Egg [1]	Pre-emergent Herbicidal, Rye (Perennial rye grass)	Pre-emergent Herbicidal, Mustard (Mustard)	Pre-emergent Herbicidal, Amaranthus [2]
CCCCCCCCCCCCCCCC(=O)OC1=C(c2cc(C)ccc2C)C(=O)C(C)C1 (stereo not drawn) [Compound 18]	2	2	2	A	4	1	1
CC(=O)OC1=C(c2ccccc2C)C(=O)C2CCCCC12 (stereo not drawn) [Compound 19, 3-acetoxy-2-(2'-methylphenyl)-4,5,6,7,8,9-hexahydro-2-indenone]	2	2	3	A	3	3	4
Cc1ccccc1C1=C(OC(=O)C(C)C)C2CCCCC2C1=O (stereo not drawn) [Compound 20]	1	3	3	A	4	3	3
CCCCC(CC)C(=O)OC1=C(c2ccccc2C)C(=O)C2CCCCC12 (stereo not drawn) [Compound 21, 3-(2-Ethylhexanoyloxy)-2-(2'-methylphenyl)-4,5,6,7,8,9-hexahydro-2-indenone]	1	2	1	A	3	1	2
Cc1ccccc1C1=C(OC(=O)C(C)(C)C)C2CCCCC2C1=O (stereo not drawn) [Compound 22]	1	3	2	A	5	3	2
CCCCCCCCCC(=O)OC1=C(c2ccccc2C)C(=O)C2CCCCC12 (stereo not drawn) [Compound 23]	1	3	2	A	5	3	3
CCCCCCCCCCCCCCCC(=O)OC1=C(c2ccccc2C)C(=O)C2CCCCC12 (stereo not drawn) [Compound 24]	1	2	1	A	4	3	2
CC(=O)OC1=C(c2ccc(C)cc2C)C(=O)C2CCCCC12 (stereo not drawn) [Compound 25]	2	3	1	A	5	3	3
CCCCC(CC)C(=O)OC1=C(c2ccc(C)cc2C)C(=O)C2CCCCC12 (stereo not drawn) [Compound 26, 3-(2-ethylhexanoyloxy)-2-(2',4'-dimethylphenyl)-4,5,6,7,8,9-hexahydro-2-indenone]	2	2	2	A	5	1	1
Cc1ccc(C2=C(OC(=O)c3ccccc3)C3CCCCC3C2=O)c(C)c1 (stereo not drawn) [Compound 27, 3-benzoyloxy-2-(2',4'-dimethylphenyl)-4,5,6,7,8,9-hexahydro-2-indenone]	2	2	1	A	5	5	4
CC(=O)OC1=C(c2cc(C)ccc2C)C(=O)C2CCCCC12 (stereo not drawn) [Compound 28]	1	1	2	A	3	1	1
Cc1ccc(C)c(C2=C(OC(=O)C(C)C)C3CCCCC3C2=O)c1 (stereo not drawn) [Compound 29]	1	2	1	A	1	1	1
CCCCC(CC)C(=O)OC1=C(c2cc(C)ccc2C)C(=O)C2CCCCC12 (stereo not drawn) [Compound 30, 3-(2-ethylhexanoyloxy)-2-(2',5'-dimethylphenyl)-4,5,6,7,8,9-hexahydro-2-indenone]	1	1	1	A	1	1	1
Cc1ccc(C)c(C2=C(OC(=O)C(C)(C)C)C3CCCCC3C2=O)c1 (stereo not drawn) [Compound 31]	1	1	1	A	1	1	1
CCCCCCCCCC(=O)OC1=C(c2cc(C)ccc2C)C(=O)C2CCCCC12 (stereo not drawn) [Compound 32]	1	1	1	A	1	1	1
